Measured values: patent USRE47689E1, “Compounds for treating spinal muscular atrophy” (PTC Therapeutics, Inc., priority 2011, dated 2019)

Legend:
[1] = test system: SMA Δ7 homozygous knockout mice; assay: Survival of neonatal Δ7 SMA mice; type: in vivo, mouse; conditions: IP QD from PND 3, then orally BID until study end, compared to vehicle
Procedure: The change in the number of surviving mice over time is used to determine whether treatment with a test compound improves survival.
Protocol. SMA Δ7 homozygous knockout mice are dosed intraperitoneally (IP) with test compound or vehicle (100% DMSO) once per day (QD) from postnatal day (PND) 3 until the dose regimen is switched to an oral dose twice per day (BID) in 0.5% hydroxypropylmethyl cellulose (HPMC) with 0.1% Tween-80 at a dose 3.16-fold higher than the dose used for IP. The number of surviving mice in each group is recorded every day and plotted as a percent of total number of mice. Tissues of SMA Δ7 and age-matched heterozygous mice are collected for the measurement of Smn protein levels and processed as detailed in Example 10. The total protein normalized Smn protein levels measured in the tissues are plotted as a percent of those in the age-matched heterozygous mice tissues, with the heterozygous levels represented as 100 percent. The level of Smn protein in the test compound treated mice tissue relative to that in heterozygous mice tissue is indicated as a percent value above each bar in the graph.

[2] = test system: gems (Smn-dependent nuclear speckles); assay: Gems count (Smn-dependent nuclear speckle count) assay; type: cell-based, human; conditions: SMA Type 1 patient fibroblasts; 48 hours; fluorescence microscopy
Excerpt: The level of Smn protein directly correlates with the amount of nuclear foci, also known as gems, produced upon staining the cell with a fluorescently labeled anti-Smn antibody (Liu and Dreyfuss, EMBO J., 1996, 15:3555). Gems are multi-protein complexes whose formation is nucleated by the Smn protein and the gems count assay is used to evaluate the level of Smn protein in the cell. As described herein, the gems count assay is used to quantify the level of Smn protein in SMA patient fibroblast cells treated with a test compound.
Protocol: Cells are thawed and incubated in DMEM-10% FBS for 72 hours, then trypsinized, counted and resuspended to 100,000 cells/mL in DMEM-10% FBS. 2 mL of the cell suspension is plated in a 6-well cell culture plate with a sterile cover slip and incubated for 3 to 5 hours. Test compounds are serially diluted 3.16-fold in 100% DMSO to generate a 7-point dilution curve. […]
Cell culture medium is aspirated from the wells containing cover slips and gently washed three times with cold PBS. […] The number of gems is counted per ≥150 nuclei and % activation is calculated using DMSO and 10 nM bortezomib as controls. For each test compound, the cells are examined at all wavelengths to identify test compounds with inherent fluorescence.

Structure (SMILES): CC(C)NCCc1ccc2cc(-c3nc4c(Cl)cccc4s3)c(=O)oc2c1 [Cpd 35, 3-(4-chloro-1,3-benzothiazol-2-yl)-7-[2-(propan-2-ylamino)ethyl]-2H-chromen-2-one]
- survival [1]: improved compared to vehicle treated mice
- number of gems relative to DMSO [2]: progressively more gems relative to cells treated with DMSO

Structure (SMILES): CCN1CCN(c2ccc3cc(-c4cn5cc(C)nc(C)c5n4)c(=O)oc3c2)C[C@@H]1C [Cpd 626, 3-(6,8-dimethylimidazo[1,2-a]pyrazin-2-yl)-7-[(3S)-4-ethyl-3-methylpiperazin-1-yl]-2H-chromen-2-one]
- survival [1]: improved compared to vehicle treated mice
- number of gems relative to DMSO [2]: progressively more gems relative to cells treated with DMSO
